Test results published in US12071624B2, “Antisense oligonucleotide targeting ARL4C molecule, and nucleic acid drug using antisense oligonucleotide” (OSAKA UNIVERSITY, priority 2018, dated 2024).

Legend:
Assay type in all cases: cell-based, human
PIK3CD mRNA [1] = experiment: PIK3CD mRNA amount by real-time PCR in ARL4C-expressing HepG2 cells; conditions: ARL4C-transduced HepG2 cells, 25 μM SecinH3 or 50 μM NSC23766
ARL4C mRNA [2] = experiment: ARL4C mRNA amount by real-time PCR in HLE cells
Description: (§1) HLE cells, HCT116 cells, and A549 cells were transfected with 25 to 50 nM ASO and 10 to 20 nM siRNA using Lipofectamine 3000 (Invitrogen, Carlsbad, CA, USA) or RNAiMAX (Invitrogen). Transfected cells were used in the experiments 36 to 48 hours after the end of the transfection.
(§2) Cell migration assays and quantitative real-time PCR analyses were performed according to the methods reported by Fujii S et al. (Oncogene 2015; 34: 4834-44).
(§3) HLE cells and HCT116 cells were transfected with the above-described seven types of ARL4C ASOs and the control ASO at 25 nM, and the ARL4C mRNA amounts were measured by real-time PCR; the results thereof are shown in (a) of FIG. 4. […] In order to optimize the effect of these three types of ARL4C ASOs, four bases were added to each of these three types of ARL4C ASOs, whereby ASO-1312, ASO-1450, and ASO-3223 each of which consisted of 19 bases were produced. With these six types of ARL4C ASOs (ASO-1316, ASO-1312, ASO-1454, ASO-1450, ASO-3225, and ASO-3223), the knockdown effect on ARL4C was further studied.
HLE cells were transfected with ARL4C ASOs (ASO-1316, ASO-1312, ASO-1454, ASO-1450, ASO-3225, and ASO-3223) at 25 nM each, and the ARL4C mRNA amounts were measured by real-time PCR; the results are shown in (c) of FIG. 3. In addition, HLE cells were transfected with ARL4C ASOs (ASO-1316, ASO-1312, ASO-3225, and ASO-3223) at 0.5 to 25 nM each, and the ARL4C mRNA amounts were measured by real-time PCR; the results are shown in (b) of FIG. 4.
HLE cells were treated with 10 μM PD184161 or 10 nM CTNNB1 siRNA (siRNA against CTNNB1), and the ARL4C mRNA amount was measured by real-time PCR; the results are shown in (a) of FIG. 5. In addition, HLE cells were treated with 10 nM CTNNB1 siRNA (siRNA against CTNNB1), and the ARL4C mRNA amount was measured by real-time PCR; the results thereof are shown in (a) of FIG. 6. PD184161 is a compound that inhibits MEK without knocking down […].

PIK3CD mRNA [3] = experiment: PIK3CD mRNA amount by real-time PCR in HLE cells; conditions: HLE cells treated with 25 μM SecinH3
Description: as §1, §2
HLE cells were treated with 25 μM SecinH3 (inhibitor of Arf nucleotide-binding site opener (ARNO)) or 50 μM NSC23766 (Rac inhibitor), and the amount of PIK3CD mRNA was measured by real-time PCR; the results are shown in (c) of FIG. 5.
HLE cells were transfected with control ASO, ASO-1316, and ASO-3223 at 25 nM, and the PIK3CD mRNA amount was measured by real-time PCR; the results are shown in (g) of FIG. 5. In addition, an anti-phosphorylated AKT (pAKT S473) antibody and an anti-AKT antibody as probes were caused to act on cell lysates of HLE cells transfected with control ASO, ASO-1316, and ASO-3223; the results are shown in (h) of FIG. 5.

ARL4C mRNA [4] = experiment: Screening of ARL4C ASO knockdown efficiency by real-time PCR in A549 cells; conditions: screening of 38 types of ARL4C ASOs
Description: as §1, §2
First, base sequences of 15-nucleotide ARL4C were selected based on the structure of ARL4C mRNA. From thousands of ARL4C ASO candidates, those that may cause hepatotoxicity were excluded, and 38 types of ARL4C ASOs (those other than ASO-1312, ASO-1450 and ASO-3223 among the ASOs in Table 1) were selected, by high-dimensional structure prediction of ARL4C mRNA. The ASOs used in this test were those in which all of the phosphodiester bonds were substituted with phosphorothioate bonds. Knockdown efficiencies of ARL4C ASOs in A549 cells (lung adenocarcinoma cells) were investigated by screening experiments using real-time PCR. It has been confirmed that the protein abundance of ARL4C in A549 cells is reduced by treatment with ARL4C siRNA. The ARL4C mRNA amounts in A549 cells treated with 38 types of ARL4C ASOs were measured, and the results are shown in (a) of FIG. 3.

ARL4C mRNA [5] = experiment: ARL4C mRNA amount by real-time PCR in HCT116 cells; conditions: HCT116 cells transfected at 25 nM
Description: as §1, §2, §3

## CCN(CC)CCCC(C)Nc1nc(C)cc(Nc2ccc3nc(C)cc(N)c3c2)n1 (centres unmarked) [NSC23766]
PIK3CD mRNA [1]
  PIK3CD mRNA amount: suppressed an increase in the PIK3CD mRNA amount

## O=C(NOCC1CC1)c1cc(Br)c(F)c(F)c1Nc1ccc(I)cc1Cl [PD184161, reference compound]
ARL4C mRNA [2]; HLE cells treated with 10 μM PD184161
  ARL4C mRNA amount: reduced ARL4C mRNA amount

## COc1nc(-c2ccc3c(c2)OCO3)n(-c2ccc(NC(=O)CSc3ccccc3)cc2)n1 [SecinH3, reference compound]
PIK3CD mRNA [3]
  PIK3CD mRNA amount: reduced the PIK3CD mRNA amount
PIK3CD mRNA [1]
  PIK3CD mRNA amount: suppressed an increase in the PIK3CD mRNA amount

## ASO-650: 15-mer ARL4C ASO of Table 1, SEQ ID NO 8 (antisense NNNTGGCAGCTGNNG; AmNA modifications; Amido-bridged nucleic acid (AmNA); modified_base (1)..(1) n is Adenine having a structure of AmNA (2′,4′- bridged nucleotide in which R is a methyl group); (1)..(3) n is a, c, g, or t; modified_base (2)..(2) n is Adenine having a structure of AmNA (2′,4′- bridged nucleotide in which R is a methyl group); modified_base (3)..(3) n is Guanine having a structure of AmNA (2′,4′- bridged nucleotide in w)
ARL4C mRNA [4]
  knockdown efficiency (ARL4C mRNA amount): high knockdown efficiencies

## ASO-793: 15-mer ARL4C ASO of Table 1, SEQ ID NO 9 (antisense NNNTGGTCACCTNNT; AmNA modifications; Amido-bridged nucleic acid (AmNA); modified_base (1)..(1) n is Adenine having a structure of AmNA (2′,4′- bridged nucleotide in which R is a methyl group); (1)..(3) n is a, c, g, or t; modified_base (2)..(2) n is 5-methylcytosine having a structure of AmNA (2′,4′-bridged nucleotide in which R is a methyl group); modified_base (3)..(3) n is Thymine having a structure of AmNA (2′,4′- bridged nucleot)
ARL4C mRNA [4]
  knockdown efficiency (ARL4C mRNA amount): high knockdown efficiencies

## ASO-986: 15-mer ARL4C ASO of Table 1, SEQ ID NO 10 (antisense NNNTCATAGAGCNNG; AmNA modifications; Amido-bridged nucleic acid (AmNA); modified_base (1)..(1) n is Adenine having a structure of AmNA (2′,4′- bridged nucleotide in which R is a methyl group); (1)..(3) n is a, c, g, or t; modified_base (2)..(2) n is 5-methylcytosine having a structure of AmNA (2′,4′-bridged nucleotide in which R is a methyl group); modified_base (3)..(3) n is Thymine having a structure of AmNA (2′,4′- bridged nucleot)
ARL4C mRNA [4]
  knockdown efficiency (ARL4C mRNA amount): high knockdown efficiencies

## ASO-1065: 15-mer ARL4C ASO of Table 1, SEQ ID NO 11 (antisense NNNAAATCAGACNNC; AmNA modifications; Amido-bridged nucleic acid (AmNA); modified_base (1)..(1) n is Guanine having a structure of AmNA (2′,4′- bridged nucleotide in which R is a methyl group); (1)..(3) n is a, c, g, or t; modified_base (2)..(2) n is Guanine having a structure of AmNA (2′,4′- bridged nucleotide in which R is a methyl group); modified_base (3)..(3) n is Thymine having a structure of AmNA (2′,4′- bridged nucleotide in w)
ARL4C mRNA [4]
  knockdown efficiency (ARL4C mRNA amount): high knockdown efficiencies

## ASO-1454: 15-mer ARL4C ASO of Table 1, SEQ ID NO 14 (antisense NNNACAAATGAANNT; AmNA modifications; Amido-bridged nucleic acid (AmNA); modified_base (1)..(1) n is Adenine having a structure of AmNA (2′,4′- bridged nucleotide in which R is a methyl group); (1)..(3) n is a, c, g, or t; modified_base (2)..(2) n is Guanine having a structure of AmNA (2′,4′- bridged nucleotide in which R is a methyl group); modified_base (3)..(3) n is Guanine having a structure of AmNA (2′,4′- bridged nucleotide in w)
ARL4C mRNA [4]
  knockdown efficiency (ARL4C mRNA amount): high knockdown efficiencies
ARL4C mRNA [2]; HLE cells transfected at 25 nM
  ARL4C mRNA amount: reduced the ARL4C mRNA amount
ARL4C mRNA [5]
  ARL4C mRNA amount: reduced the ARL4C mRNA amount

## ASO-3225: 15-mer ARL4C ASO of Table 1, SEQ ID NO 35 (antisense NNNTTACAGTATNNG; AmNA modifications; Amido-bridged nucleic acid (AmNA); modified_base (1)..(1) n is Adenine having a structure of AmNA (2′,4′- bridged nucleotide in which R is a methyl group); (1)..(3) n is a, c, g, or t; modified_base (2)..(2) n is Guanine having a structure of AmNA (2′,4′- bridged nucleotide in which R is a methyl group); modified_base (3)..(3) n is Guanine having a structure of AmNA (2′,4′- bridged nucleotide in w)
ARL4C mRNA [4]
  knockdown efficiency (ARL4C mRNA amount): high knockdown efficiencies
ARL4C mRNA [2]; HLE cells transfected at 25 nM
  ARL4C mRNA amount: reduced the ARL4C mRNA amount
ARL4C mRNA [5]
  ARL4C mRNA amount: reduced the ARL4C mRNA amount
